Source: US8426447B2, “Spiro-tricyclic ring compounds as beta-secretase modulators and methods of use” (Amgen Inc., priority 2008, dated 2013)

What was measured:
BACE1 [1] = target: T1, BACE1 (Homo sapiens, UniProt P56817); assay: In Vitro Enzymatic BACE FRET (Fluorescence Resonance Energy Transfer) Assay; assay type: biochemical; settings: read-out: BACE1 FRET assay
In short: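 One-hour incubation initiated by 50 nM quenched FRET peptide spanning the BACE cleavage site, in 0.05 M acetate (pH 4.2), 100 uM genapol, 10% DMSO final. Tris addition neutralizes pH to end the reaction before fluorescence measurement.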

BACE1 [2] = target: T1, BACE1; assay: In Vitro BACE Cell-based Assay (HEK cell assay): Aβ40 in conditioned medium of cells stably expressing Amyloid Precursor Protein, sandwich ELISA; settings: read-out: HEK cell assay
In short: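 HEK cells stably expressing APP were treated 24 h with compound in 10-point dose response starting at 100 or 10 μM (0.1% DMSO). Secreted Aβ40 quantified by sandwich ELISA (pAb40 capture, biotinylated 6E10 detection, europium time-resolved fluorescence), with IC50 derived from percent inhibition versus concentration.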

[3] = Table II, Aβ40, 24 h incubation
[4] = in vitro BACE FRET enzyme assay, IC50 class symbols
[5] = HEK cell-based assay, Aβ40 in conditioned medium, IC50 class symbols

T1 sequence (P56817 46-501, species assumed): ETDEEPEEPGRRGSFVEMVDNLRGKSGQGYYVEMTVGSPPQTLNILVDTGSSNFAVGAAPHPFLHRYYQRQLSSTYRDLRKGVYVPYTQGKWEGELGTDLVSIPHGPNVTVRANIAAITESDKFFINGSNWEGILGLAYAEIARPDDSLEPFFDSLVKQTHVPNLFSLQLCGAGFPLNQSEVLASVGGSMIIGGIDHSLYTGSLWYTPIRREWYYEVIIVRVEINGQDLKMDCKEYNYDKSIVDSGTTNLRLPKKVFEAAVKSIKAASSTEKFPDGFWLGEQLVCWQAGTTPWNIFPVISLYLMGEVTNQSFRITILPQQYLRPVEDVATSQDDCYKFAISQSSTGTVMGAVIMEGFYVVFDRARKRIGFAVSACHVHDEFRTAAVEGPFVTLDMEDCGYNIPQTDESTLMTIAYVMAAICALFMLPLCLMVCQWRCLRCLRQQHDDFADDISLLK

Compound	IC50 (BACE1 [1]) [µM]	IC50 (BACE1 [1]; Table IV, class symbols) [µM]	IC50 (BACE1 [2]; Table IV, class symbols) [µM]	further results
CC(C)(C)COc1ccc2c(c1)[C@]1(COC(N)=N1)c1cc(-c3c[nH]cn3)ccc1O2 [compound 978]	0.1 to 1			IC50 (BACE1 [2]): 1 to 5 µM
NC1=N[C@@]2(CO1)c1cc(-c3cccnc3)ccc1Oc1cnc(N3CCCC3)cc12 [compound 493]	< 0.1			IC50 (BACE1 [2]; HEK cells): < 0.1 µM
CC1(C)CC(c2cc(F)c3c(c2)[C@]2(COC(N)=N2)c2cc(-c4cncnc4)ccc2O3)=CCO1 [compound 465]	< 0.1			IC50 (BACE1 [2]; HEK cells): < 0.1 µM
CC(C)(C)OC(=O)/C=C/c1ccc2c(c1)[C@]1(COC(N)=N1)c1cc(-c3cccnc3)ccc1O2 [compound 995]	0.1 to 1			IC50 (BACE1 [2]): 1 to 5 µM
NC1=N[C@]2(CO1)c1cc(OCC3CCCO3)ccc1Oc1ccc(-c3cncnc3)cc12 (stereo partly drawn) [Example 60, (4S)-2′-(5-pyrimidinyl)-7′-(tetrahydro-2-furanylmethoxy)spiro[1,3-oxazole-4,9′-xanthen]-2-amine]				IC50 (BACE1 [1]; Table II): < 0.1 µM; IC50 (BACE1 [2]; [3]): < 0.1 µM
NC1=N[C@@]2(CO1)c1cc(-c3cncnc3)ccc1Oc1ncc(C#CC3CC3)cc12 [compound 742]	< 0.1			IC50 (BACE1 [2]): < 0.1 µM
CC(C)(C)OC(=O)N1CC=C(c2ccc3c(c2)[C@]2(COC(N)=N2)c2cc(-c4cccnc4)ccc2O3)CC1 [compound 819]		< 0.1	0.1 to 1	
NC1=N[C@@]2(CO1)c1cc(-c3cccnc3)ccc1Oc1cnc(C3=CCCCO3)cc12 [compound 729]	< 0.1			IC50 (BACE1 [2]): < 0.1 µM
COC(C)(C)COc1cnc2c(c1)[C@@]1(COC(N)=N1)c1cc(-c3ccccc3)ccc1O2 [compound 349]				IC50 (BACE1 [1]; [4]): 0.1 to 1 µM; IC50 (BACE1 [2]; [5]): 1 to 5 µM
NC1=N[C@]2(CO1)c1cc(C3=CCNCC3)ccc1Oc1ccc(-c3cccnc3)cc12 [compound 810]		< 0.1	< 0.1	
Cc1ccc2c(c1)Oc1ccc(-c3cccc(Cl)c3F)cc1C21COC(N)=N1 (centres unmarked) [Example 26, 2′-(3-chloro-2-fluorophenyl)-6′-methylspiro[1,3-oxazole-4,9′-xanthen]-2-amine]				IC50 (BACE1 [1]; Table 1): > 5 µM; IC50 (BACE1 [2]; Table 1, Aβ40, 24 h incubation): 1 to 5 µM
CC(C)(C)COc1ccc2c(c1)[C@]1(COC(N)=N1)c1cc(C(=O)N3CCCCC3)ccc1O2 [compound 873]		0.1 to 1	0.1 to 1	
NC1=N[C@@]2(CO1)c1cc(-c3cncnc3)ccc1Oc1ccc(N3CCOC4(CCCC4)C3)cc12 [compound 462]	< 0.1			IC50 (BACE1 [2]; HEK cells): 0.1 to 1 µM
CC(C)(C)CCOc1nccc2c1[C@]1(COC(N)=N1)c1cc(-c3cncnc3)ccc1O2 [compound 984]	0.1 to 1			IC50 (BACE1 [2]): 0.1 to 1 µM
COc1ccc2c(c1)[C@@]1(COC(N)=N1)c1c(ccc(-c3cncnc3)c1F)O2 [compound 899]		0.1 to 1	1 to 5	
NC1=N[C@@]2(CO1)c1cc(C#CC3CC3)ccc1Oc1ccc(Oc3ccccn3)cc12 [compound 211]				IC50 (BACE1 [1]; Table III, IC50's in uM ranges): 0.1 to 1 µM; IC50 (BACE1 [2]; Table III, IC50's in uM ranges): 1 to 5 µM
CC(C)(C)OC(=O)Cc1ccc2c(c1)[C@]1(COC(N)=N1)c1cc(-c3cncnc3)ccc1O2 [compound 765]	0.1 to 1			IC50 (BACE1 [2]): 0.1 to 1 µM
CC(C)(C)C#Cc1ccc2c(n1)[C@]1(COC(N)=N1)c1cc(-c3cncnc3)ccc1O2 [compound 526]	0.1 to 1			IC50 (BACE1 [2]; HEK cells): 0.1 to 1 µM
NC1=N[C@]2(CO1)c1cc(Br)ccc1Oc1ccc(Cl)nc12 [compound 856]		> 5	> 5	
Cc1cnc(F)c(-c2ccc3c(c2)[C@@]2(COC(N)=N2)c2cc(C4CCOCC4)ncc2O3)c1 [compound 332]				IC50 (BACE1 [1]; [4]): < 0.1 µM; IC50 (BACE1 [2]; [5]): < 0.1 µM
CC(C)(C)c1nc(-c2ccc3c(c2)[C@]2(COC(N)=N2)c2cc(-c4cccnc4)ccc2O3)cs1 [compound 622]		< 0.1	0.1 to 1	
CC1(C)CN(c2cnc3c(c2)[C@]2(COC(N)=N2)c2cc(-c4cccnc4F)ccc2O3)CCO1 [compound 463]	< 0.1			IC50 (BACE1 [2]; HEK cells): < 0.1 µM
CC1(COc2ccc3c(c2)[C@@]2(COC(N)=N2)c2cc(-c4ccccc4)cnc2O3)COC1 [compound 966, (5S)-7-((3-methyl-3-oxetanyl)methoxy)-3-phenylspiro[chromeno[2,3-b]pyridine-5,4′-[1,3]oxazol]-2′-amine]	< 0.1			IC50 (BACE1 [2]): < 0.1 µM
CC(C)(C)CCOc1ccc2c(c1)[C@]1(COC(N)=N1)c1cc(-c3cncnc3)ccc1O2 [Example 70, (4S)-2′-(3,3-dimethylbutoxy)-7′-(5-pyrimidinyl)spiro[1,3-oxazole-4,9′-xanthen]-2-amine]				IC50 (BACE1 [1]; Table II): < 0.1 µM; IC50 (BACE1 [2]; [3]): 0.1 to 1 µM
CC(=O)COc1ccc2c(c1)[C@@]1(COC(N)=N1)c1cc(-c3cccnc3)cnc1O2 [compound 864]		0.1 to 1	0.1 to 1	
NC1=N[C@@]2(CO1)c1cc(-c3cccnc3F)ccc1Oc1cnc(-c3cccnc3F)cc12 [compound 550]		< 0.1	0.1 to 1	

Compound	IC50 (BACE1 [1]) [µM]	IC50 (BACE1 [1]; Table IV, class symbols) [µM]	IC50 (BACE1 [2]; Table IV, class symbols) [µM]	further results
COCC#Cc1ccc2c(c1)[C@]1(COC(N)=N1)c1cc(-c3cncnc3)ccc1O2 [156a]				IC50 (BACE1 [1]; Table III, IC50's in uM ranges): < 0.1 µM; IC50 (BACE1 [2]; Table III, IC50's in uM ranges): < 0.1 µM
NC1=N[C@@]2(CO1)c1cc(-c3cccnc3)ccc1Oc1c(F)cc(OCC3CCOCC3)cc12 [compound 418]				IC50 (BACE1 [1]; [4]): < 0.1 µM; IC50 (BACE1 [2]; [5]): < 0.1 µM
CC(C)(C)C#Cc1ccc2c(n1)[C@]1(COC(N)=N1)c1cc(-c3cccnc3)ccc1O2 [compound 854]		< 0.1	< 0.1	
Cc1nc(-c2ccc3c(c2)[C@]2(COC(N)=N2)c2cc(-c4cccnc4)ccc2O3)cs1 [compound 679]	< 0.1			IC50 (BACE1 [2]): < 0.1 µM
NC1=N[C@@]2(CO1)c1cc(Br)ccc1Oc1c(F)cccc12 [compound 558]		1 to 5	> 5	
NC1=N[C@@]2(CO1)c1cc(-c3cccnc3F)ccc1Oc1c(F)cc(C3CCOCC3)cc12 [compound 385, (4S)-4′-fluoro-7′-(2-fluoro-3-pyridinyl)-2′-(tetrahydro-2H-pyran-4-yl)spiro[1,3-oxazole-4,9′-xanthen]-2-amine]				IC50 (BACE1 [1]; [4]): < 0.1 µM; IC50 (BACE1 [2]; [5]): < 0.1 µM
CSc1ccc(-c2ccc3c(c2)[C@]2(COC(N)=N2)c2cc(OCC(C)(C)C)ccc2O3)cc1 [compound 787]	< 0.1			IC50 (BACE1 [2]): 1 to 5 µM
NC1=N[C@]2(CO1)c1cc(Br)ccc1Oc1cnc(Cl)cc12 [compound 549]		> 5	> 5	
COC1CN(c2cc(F)c3c(c2)[C@]2(COC(N)=N2)c2cc(-c4cccnc4)ccc2O3)C1 [compound 474]	< 0.1			IC50 (BACE1 [2]; HEK cells): < 0.1 µM
CC1(C)C[C@H](c2ccc3c(c2)[C@]2(COC(N)=N2)c2cc(-c4cncnc4)ccc2O3)CCO1 [compound 482]	< 0.1			IC50 (BACE1 [2]; HEK cells): < 0.1 µM
CC(C)(F)COc1ccc2c(c1)[C@]1(COC(N)=N1)c1cc(-c3cccnc3)ccc1O2 [compound 148]				IC50 (BACE1 [1]; Table III, IC50's in uM ranges): < 0.1 µM; IC50 (BACE1 [2]; Table III, IC50's in uM ranges): < 0.1 µM
C[C@@H]1CN(c2cc(F)c3c(c2)[C@]2(COC(N)=N2)c2cc(-c4cccnc4)ccc2O3)C[C@H](C)O1 [compound 483]	< 0.1			IC50 (BACE1 [2]; HEK cells): < 0.1 µM
CC(C)(O)COc1ccc2c(c1)[C@]1(COC(N)=N1)c1cc(-c3ccc(F)nc3)ccc1O2 [compound 222]				IC50 (BACE1 [1]; Table III, IC50's in uM ranges): < 0.1 µM; IC50 (BACE1 [2]; Table III, IC50's in uM ranges): < 0.1 µM
CC(C)(C#N)COc1ccc2c(c1)[C@]1(COC(N)=N1)c1cc(-c3cccnc3)cnc1O2 [compound 168]				IC50 (BACE1 [1]; Table III, IC50's in uM ranges): < 0.1 µM; IC50 (BACE1 [2]; Table III, IC50's in uM ranges): < 0.1 µM
CC(C)(C)COc1ccc2c(c1)[C@]1(COC(N)=N1)c1cc(C#N)ccc1O2 [compound 959]	0.1 to 1			IC50 (BACE1 [2]): 1 to 5 µM
NC1=N[C@@]2(CO1)c1cc(-c3cccnc3)ccc1Oc1ccc(N3C[C@@H]4C[C@H]3CO4)cc12 [compound 564]		< 0.1	< 0.1	
COCC#Cc1ccc2c(c1)[C@@]1(COC(N)=N1)c1cc(-c3cncnc3)ccc1O2 [156b]				IC50 (BACE1 [1]; Table III, IC50's in uM ranges): 0.1 to 1 µM; IC50 (BACE1 [2]; Table III, IC50's in uM ranges): 0.1 to 1 µM
CC(C)(C)COc1ccc2c(c1)[C@]1(COC(N)=N1)c1cc(-c3cccs3)ccc1O2 [compound 834]		< 0.1	1 to 5	
CC(C)(C#N)COc1cnc2c(c1)[C@]1(COC(N)=N1)c1cc(-c3ccccc3)ccc1O2 [compound 409]				IC50 (BACE1 [1]; [4]): < 0.1 µM; IC50 (BACE1 [2]; [5]): 0.1 to 1 µM
Cn1cc(-c2ccc3c(c2)[C@]2(COC(N)=N2)c2cc(-c4ccc(F)nc4)ccc2O3)cn1 [compound 631]		< 0.1	< 0.1	
CC(=O)COc1ccc2c(c1)[C@]1(COC(N)=N1)c1cc(-c3cccnc3)cnc1O2 [compound 865]		1 to 5	1 to 5	
CC(C)(C)COc1ccc2c(c1)[C@]1(COC(N)=N1)c1cc(-c3cc(Cl)ccc3F)cnc1O2 [Example 91, (5R)-3-(5-chloro-2-fluorophenyl)-7-(2,2-dimethylpropoxy)spiro[chromeno[2,3-b]pyridine-5,4′-[1,3]oxazol]-2′-amine]				IC50 (BACE1 [1]; Table II): < 0.1 µM; IC50 (BACE1 [2]; [3]): 0.1 to 1 µM
CC1(COc2ccc3c(c2)[C@@]2(COC(N)=N2)c2cc(-c4cncnc4)cc(F)c2O3)COC1 [compound 795]		< 0.1	< 0.1	
CC(=O)COc1ccc2c(c1)[C@]1(COC(N)=N1)c1cc(-c3cccnc3)ccc1O2 [compound 923]		< 0.1	< 0.1	
N#Cc1cccc(-c2cc3c(cn2)Oc2ccc(-c4cccnc4F)cc2[C@@]32COC(N)=N2)c1 [compound 373]				IC50 (BACE1 [1]; [4]): < 0.1 µM; IC50 (BACE1 [2]; [5]): < 0.1 µM
Cc1ccc2c(c1)Oc1ccc(-c3cccc(Cl)c3)cc1C21COC(N)=N1 (centres unmarked) [Example 25, 2′-(3-chlorophenyl)-6′-methylspiro[1,3-oxazole-4,9′-xanthen]-2-amine]				IC50 (BACE1 [1]; Table 1): > 5 µM; IC50 (BACE1 [2]; Table 1, Aβ40, 24 h incubation): 1 to 5 µM
